In paper PMC5078989, “Targeted inhibition of the COP9 signalosome for treatment of cancer” (Nature Communications, 2016):

Experiments:
[1] = test system: TE-1 cells; test: Cell viability assay (CellTiter-Glo), TE-1; assay type: cell-based, human; settings: TE-1, 72 h; cytostatic
Procedure: Cells were maintained in a humidified incubator at 37 °C and 5% CO2. […] All cells were negatively tested for mycoplasma contamination either by the vendor or in house. […] If not stated otherwise, cells were harvested after incubation for 16 h and subjected to SDS-PAGE and western blotting. The RNA interference experiment was performed with CSN5 stealth siRNA (#HSS116986) and stealth negative control siRNA (#12935-400) (Invitrogen), which were transfected at 10 nM into HCT116 cells using […] (Qiagen) according to the manufacturer's protocols. Seventy-two hours after transfection, cells were harvested and subjected to SDS-PAGE and western blotting (see Supplementary Fig. 7 for all western blottings performed). A standardized CellTiter-Glo Assay (Promega #G7570) based on the quantification of ATP was applied according to the manufacturer's protocol to measure the amount of viable cells in culture. In brief, cells were seeded into 384-well plates at optimal density for each cell line. After 4 h, compounds were added at different concentrations in growth medium and incubated for another 72 h in a humidifying chamber at 37 °C and 5% CO2. Eventually, equal amounts of CellTiter-Glo reagent were added directly to the cells, incubated for 15 min and luminescence was recorded using PHERAstar plate reader (BMG LABTECH GmbH).

[2] = test system: SU-DHL-1 xenografts; test: Immunoblotting for Cul1 and Skp2 of tumours excised at end of treatment; assay type: in vivo, SCID-bg mice; settings: tumours excised at the end of the study
Procedure: (a) SU-DHL-1 xenografts were grown in SCID-bg mice and dosed by oral administration with either vehicle control or CSN5i-3 at the indicated doses and schedules. Mean tumour volumes are shown±s.e.m. (n=4; P<0.05). (b) Immunoblotting for Cul1 and Skp2 of tumours excised at the end of treatment. (c) Pharmacokinetics of CSN5i-3 post second to last dose. Mean blood concentrations are shown±s.e.m. (n=4). […] Cells from longer compound incubations were also lysed in RIPA buffer, which allows the protein concentration to be determined by BCA Protein Assay Kit (Pierce). Proteins were separated by SDS-PAGE using 4-20% Tris-Glycine Gels (Invitrogen) and subsequently transferred to polyvinylidene difluoride membranes using a Trans-Blot Turbo System (BioRad). […] Cul1 (1:500; #718700), Cul2 (1:250; #7001792), Rbx1 (1:300; #342500) (Invitrogen); Fbxw7 (1:300; # 55290-1-AP), Fbxo22 (1:500; #13606-1-AP) (Proteintech); Cul3 (1:1,000; # […]), CSN5 (1:2,000; #[…]) (Bethyl Laboratories); Fbxo3 (1:300; #AP9195) (Abgent); p21 (1:500; #556431) (BD Biosciences); Fbxo30 (1:500; # H00084085-B01) (Abnova); β-Actin (1:5,000; #A5441) (Sigma-Aldrich); Fbxo7 (1:500; #PA527589) (Pierce). Horseradish peroxidase-conjugated secondary antibodies (1:3,000) were purchased from Promega AG and bound antibody was detected by enhanced chemiluminescence (Pierce). […]

[3] = Blood concentrations of CSN5i-3 in xenograft study; assay type: in vivo, SCID-bg mice; settings: 50 mg kg^−1 BID and 100 mg kg^−1 QD oral
Procedure: All animal experiments were approved by the Kantonales Veterinäramt Basel-Stadt and were conducted in accordance with the Eidgenössisches Tierschutzgesetz and the Eidgenössische Tierschutzverordnung. SU-DHL-1 cells (1 × 10^7; DSMZ) were implanted subcutaneously into SCID-bg female 7–9-week-old mice (Taconic) and developing tumours were propagated once before subcutaneous transplantation for efficacy studies. Treatment was initiated when tumours reached 150–200 mm^3 volume. […] Randomization was conducted by using an internal computer software (Indigo). CSN5i-3 was formulated in 100 mM citrate buffer pH 3, PEG300, Kolliphor HS15, 1 N HCl (56:30:10:4%w/w). Tumour response is reported as percentage change in tumour volume at the last day of treatment relative to start of treatment. […] At day 10 of treatment blood, samples were taken and concentrations of CSN5i-3 were determined at indicated time points post dose using ultra-high-pressure liquid chromatography/tandem MS. At the end of treatment, tumours were excised and snap frozen in liquid nitrogen. Frozen tumours were pulverized using CryoPrep (Covaris Inc.) and protein lysates were prepared from tumour powder for immunoblot analysis.

CC(C)n1nc(C(F)F)cc1C(=O)Nc1ccc([C@H]2[C@@H](O)CCCc3cncn32)c(-c2ccccc2)c1 [CSN5i-3, 3-(Difluoromethyl)-N-(6-((5S,6S)-6-hydroxy-6,7,8,9-tetrahydro-5H-imidazo[1,5-a]azepin-5-yl)-[1,1′-biphenyl]-3-yl)-1-isopropyl-1H-pyrazole-5-carboxamide]
AMAX [1]: about −50% | Cul1 deneddylation in tumours [2]: inhibited | Skp2 levels in tumours [2]: reduced | dose dependence of exposure [3]: dose-linear exposure
